Reference: EP2873675A1, “Peptide-based peroxidase inhibitors and methods of using same” (The Medical College of Wisconsin, Inc., priority 2013, dated 2015)
“Also recorded” adds a separate entry of the source. Residues, ends and D or L forms follow the SMILES beside them.

Experiments:
Assay type in all cases: in vivo
[1] = system: SCD mice; assay: Vasodilatation of pressurized facialis arteries from treated SCD mice; details: IP 0.3 mg/kg/d for 3 weeks; response to ACh; untreated SCD ∼20%
Procedure: Murine Model of Sickle Cell Disease. Mice treated with KYC in vivo. SCD mice were treated with KYC (intraperitoneal injection: IP 0.3 mg/kg/d) or with PBS (IP 100 µL) for 3 weeks. Anesthesia was induced with Ketamine (100mg/kg) + Xylazine (10mg/kg) cocktail (ip) and then sacrificed by exsanguination. Facialis arteries were atraumatically dissected and maintained in cooled MOPS solution (in mM: NaCl 145, KCL 4.7, CaCl2 2, NaH2PO4 1.2, MgSO4, 1.2, pyruvate 2, EDTA 0.02, MOPS 3.0, and glucose 5.0, at pH 7.4). Vessels were then submerged in a MOPS bath, mounted on MOPS-containing glass capillary tubes, internally pressurized (60 mmHg), and warmed to 37°C. Internal vascular diameters were measured with a calibrated video-microscope (Boeckeler). After the vessel was allowed to acclimate to 37°C (approximately 30 min), the diameter was measured and recorded (Dmax). […] A control dose-response curve using acetylcholine (ACh, 10^-7 - 10^-4 M) was performed and vessel diameter recorded. […] Vasodilation to papaverine (2.0X10^-4 M) was determined after all treatments to ensure smooth muscle viability. Vasodilation was calculated as a percent of maximal vessel diameter change.
Vasodilatation. […] Physiological responses to increasing concentrations of acetylcholine (ACh) were determined by videomicroscopy as previously described.

[2] = system: SCD mice; assay: Immunofluorescence of aortas of SCD mice; details: IP 0.3 mg/kg/d, three weeks; vs non-treated SCD mice
Procedure: Immunofluorescence Studies. In a separate study, SCD mice were treated with KYC (IP, 0.3 mg/kg/d). After three weeks treatment, mice were deeply anesthetized and euthanized by exsanguination. Thoracic and abdominal aortas were surgically removed and rinsed free of blood elements using ice cold PBS. Aortas were fixed, imbedded in paraffin, and sectioned.

[3] = system: SCD mice; assay: WBC counts in SCD mice (cytometry); details: SCD mice treated for three weeks
Procedure: MPO improves vascular function in SCD mice. To determine whether inhibiting MPO improves vascular function and/or reduces inflammation in vivo, SCD mice were treated with KYC for three weeks. […] Such physiological and structural changes are consistent with immunofluorescent studies showing that chlorotyrosine and MPO levels are reduced in the aortas of KYC-treated SCD mice compared with non-treated SCD mice (Fig. 13). High WBC counts are indicative of on-going inflammation in SCD and predictive of future vaso-occlusive events. Accordingly, WBC levels were quantified in the SCD mice using standard cytometry assays.

[4] = system: OVA-sensitized C57BL/6J mice; assay: OVA murine model of experimentally-induced asthma (lung histology); details: 0.3 mg/kg every other day for 10 days
Description: Murine Model of Experimentally-Induced Asthma. C57BL/6J mice (12-14 wk old) from Jackson Laboratory (Bar Harbor, ME) were housed in sterile autoclavable microisolation cages and fed standard laboratory mouse chow and water ad libitum. All protocols were approved by the Institutional Animal Care and Use Committee (IACUC) of the Medical College of Wisconsin.
C57BL/6J mice were divided into three groups; a control group (Control), an ovalbumin (OVA)-sensitized group and an OVA-sensitized group treated with KYC. OVA sensitization was achieved using a modification of a protocol previously described by de Siqueira et al^15 (Fig. 1). […] When mice inhale aerosolized OVA, robust allergic responses are routinely observed.
Briefly, on day one, mice were anesthetized (halothane; Halocarbon Laboratories, River Edge, NJ) and a heat-denatured OVA fragment (∼80 mg, 5 × 2 × 2 mm) was implanted subcutaneously in the dorsal aspect of the neck. The incision was closed with stainless steel clips and the mouse was allowed to recover. Implantation of the heat-denatured OVA fragment initiates sensitization. On day fifteen, the implanted mice were exposed to aerosolized OVA (6% in PBS) for 30 minutes every other day for ten days. Twenty-four hours after the last OVA challenge, the mice were deeply anesthetized (halothane), sacrificed by exsanguination and the lungs removed for analysis. […]

Compound: CC(=O)N[C@@H](CCCCN)C(=O)N[C@@H](Cc1ccc(O)cc1)C(=O)N[C@@H](CS)C(N)=O [KYC, N-acetyl Lysyltyrosylcysteine amide] (Ac-Lys-Tyr-Cys-NH2)
- vasodilatation, percent of maximal vessel diameter change [1]: ~60%
- MPO levels in the aortas [2]: reduced
- chlorotyrosine levels in the aortas [2]: reduced
- WBC counts [3]: more than half; also recorded: reduced by half
- eosinophil infiltration in the lungs ([4]; H&E): markedly reduce eosinophil infiltration to essentially control levels
- collagen deposition in the lungs ([4]; McLetchie trichrome): markedly reduces collagen deposition to control levels
